Results taken from patent US20230027295A1, “FXIA INHIBITORS AND PREPARATION METHOD THEREFOR AND PHARMACEUTICAL USE THEREOF” (Shenzhen Salubris Pharmaceuticals Co., Ltd., priority 2019, published 2023).

How the values were obtained:
Human Factor XIa = Human Factor XIa (Homo sapiens, UniProt P03951); assay: Inhibition of human coagulation factor XIa by absorptiometry (substrate S-2366); type: biochemical; conditions: 37° C., 20 min incubation, absorbance 405 nm; read-out: hFXIa IC50
Experimental: Example 50: Detection of the Biological Activity of the Compounds of the Present Invention on the Inhibition of Human Coagulation Factor XIa by Absorptiometry
Buffer: 145 mM NaCl, 5 mM KCl, 1 mg/mL PEG 8000, 30 mM HEPES, pH 7.4
10 mM test compound dissolved in 100% DMSO was diluted with 100% DMSO to […]; 98 μL of FXIa enzyme solution (77.7 ng/mL) was added to each well of a 96-well plate, and 98 μL of buffer was added to the blank wells. 2 μL of compounds of different concentrations were added, and the blank and control wells were added with DMSO instead. They were mixed with a shaker, and incubated at 37° C. for 20 minutes.
Finally, 100 μL of 800 μM substrate was added to each well, and its absorbance was measured at 405 nm.

human plasma = assay: Anticoagulant effect on human plasma in vitro (APTT determination); type: biochemical; conditions: for aPTT EC1.5×: concentration giving APTT of 1.5× blank control; for aPTT EC2×: concentration giving APTT of 2× blank control
Experimental: Example 51: Determination of the Anticoagulant Effect of the Compounds of the Present Invention on Human Plasma In Vitro
Plasma: Human blood was collected in a vacuum blood collection tube containing 3.2% sodium citrate (volume ratio 1:9), centrifuged at 3000 rpm for 10 min at room temperature, and the plasma was collected, divided into EP tubes, and stored at −80° C.
Reagents: APTT assay kit (Activated partial thromboplastin time assay kit, mindray), calcium chloride solution.
Instrument: coagulation meter (mindray, C2000-A)
The frozen human plasma in aliquots was thawed at room temperature and mixed well. 10 mM test compound dissolved in 100% DMSO was diluted with 100% DMSO to 1500, 750, 375, 187.5, 93.75, 46.88, 23.44, 11.72 μM. 98 μL of human plasma was added to a 1.5 mL EP tube, then 2 μL of compounds of different concentrations were added, and 2 μL of 100% DMSO was added for the blank group. They were incubated under a water bath at 37° C. for 10 min, and the samples were placed in the corresponding position of the coagulation analyzer to conduct APTT determination of the compounds.
Curve fitting was performed with GraphPad Prism software, and EC1.5× and EC2× values were calculated respectively, i.e., the concentrations of the compounds corresponding to the APTT of 1.5× and 2× blank control group.

Rat pharmacokinetics = type: in vivo, SD rats; set-up: AUC: concentration or dose not given beside the values; conditions: for AUC / Cmax / Tmax / clearance / half-life / Vd: male, SD, plasma; for Vd: read-out: Vss
Text: (§1) Example 53: Investigation of the Pharmacokinetic Characteristics of the Compounds of the Present Invention
(§2) SD rats: male, 180-250 g, purchased from Guangdong Medical Laboratory Animal Center. Cynomolgus monkey: male, 4-6 kg, purchased from Guangzhou Chunsheng Biological Research Institute Co., Ltd. Beagle dog: male, 8-12 kg, developed in Kanglong Chemical (Ningbo) New Drug Technology Co., Ltd.
(§3) Reagents: DMSO (dimethyl sulfoxide), PEG-400 (polyethylene glycol 400), normal brine, heparin, acetonitrile, formic acid, and propranolol (internal standard) are commercially available.
(§4) Instrumentation: Thermo Fisher Scientific LC-MS (U300 UPLC, TSQ […] ULTRA triple quadrupole mass spectrometer).
(§5) The compound was weighed and dissolved in DMSO-PEG-400-physiological brine (5:60:35, v/v/v) system. After the rats/monkeys were administered intravenously or by gavage, 200 μL of venous blood was collected at 5 min (not collected when administered by gavage), 15 min, 30 min, 1 h, 2 h, 4 h, 6 h, 8 h, and 24 h in heparinized EP tubes, centrifuged at 12000 rpm for 2 min, and the plasma was frozen at −80° C. for testing. A certain amount of the test substance was precisely weighed and dissolved in DMSO to 1 mg/mL, which was used as a stock solution. An appropriate amount of compound stock solution was accurately pipetted and diluted with acetonitrile to prepare a standard series of solutions. 20 μL of each of the above standard series solutions were accurately pipetted, added with 180 μL of blank plasma, vortexed and mixed to prepare plasma samples equivalent to plasma concentrations of 1, 3, 10, 30, 100, 300, 1000, 3000 and 5000 ng/mL. Two-sample analysis was performed for each concentration to establish a standard curve. 20 μL of plasma was taken out, added with 200 μL of internal standard propranolol (5 ng/mL) in acetonitrile, vortexed and mixed. It was centrifuged at 4000 rpm for 5 min, and the supernatant was collected for LC-MS analysis. LC-MS detection conditions were as follows:
(§6) Chromatographic column: Thermo Scientific […] GOLD C-18 UPLC column, 100*2.1 mm, 1.9 μm.
(§7) Mobile phase: water (0.1% formic acid)-acetonitrile for gradient elution according to the table below.
(§8) After blood drug concentrations being detected by LC-MS, WinNonlin 6.1 software was used to calculate pharmacokinetic parameters by non-compartmental model method.

[1] = Cynomolgus monkey pharmacokinetics; type: in vivo; set-up: AUC: concentration or dose not given beside the values
Text: as §1, §2, §3, §4, §5, §6, §7, §8

Sequence of Human Factor XIa (P03951 388-625 limits assumed): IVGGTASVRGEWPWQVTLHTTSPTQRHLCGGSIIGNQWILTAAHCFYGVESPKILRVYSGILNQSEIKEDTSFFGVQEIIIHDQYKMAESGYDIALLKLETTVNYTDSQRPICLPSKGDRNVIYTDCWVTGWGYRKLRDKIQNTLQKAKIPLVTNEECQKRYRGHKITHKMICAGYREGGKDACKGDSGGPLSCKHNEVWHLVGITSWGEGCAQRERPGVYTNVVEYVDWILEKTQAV
Sequence of Human Factor XIa (P03951 19-387 partner limits assumed): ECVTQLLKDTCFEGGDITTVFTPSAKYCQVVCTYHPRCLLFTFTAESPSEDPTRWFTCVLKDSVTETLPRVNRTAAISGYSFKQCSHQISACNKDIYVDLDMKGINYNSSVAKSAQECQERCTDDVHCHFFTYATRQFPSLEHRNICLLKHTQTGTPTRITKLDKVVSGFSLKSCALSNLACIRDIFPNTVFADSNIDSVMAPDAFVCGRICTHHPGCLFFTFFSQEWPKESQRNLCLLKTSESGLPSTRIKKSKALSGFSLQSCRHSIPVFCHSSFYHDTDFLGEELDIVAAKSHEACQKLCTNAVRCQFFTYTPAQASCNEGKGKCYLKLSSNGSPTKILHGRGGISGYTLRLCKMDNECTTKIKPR

Row | Structure (SMILES) | IC50 (Human Factor XIa) | aPTT EC1.5× (human plasma) | aPTT EC2× (human plasma) | F (Rat pharmacokinetics; ig) | AUC (Rat pharmacokinetics; iv) | Cmax (Rat pharmacokinetics; iv) | Tmax (Rat pharmacokinetics; iv) | clearance (Rat pharmacokinetics; iv) | half-life (Rat pharmacokinetics; iv) | Vd (Rat pharmacokinetics; iv) | Cmax (Rat pharmacokinetics; po, ig) | Tmax (Rat pharmacokinetics; po, ig) | AUC (Rat pharmacokinetics; po, ig) | half-life (Rat pharmacokinetics; po, ig) | other results
1 | COc1nn([C@@H](Cc2ccccc2)C(=O)Nc2ccc3[nH]c(C(=O)O)cc3c2)c(=O)cc1-c1cc(Cl)ccc1C(C)=O [Example 15, (S)-5-(2-(4-(2-acetyl-5-chlorophenyl)-3-methoxy-6-oxopyridazin-1(6H)-yl)-3-phenylpropanamido)-1H-indol-2-formic acid] | 1.52 nM | 0.531 µM | 1.749 µM | 0.1% | 599 ng·h/mL | 1840 ng/mL | 4.98 min | 29.1 mL/min/kg | 28 min | 0.471 L/kg | 3 ng/mL | 30 min |  |  | 
2 | CCOc1nn([C@@H](Cc2ccccc2)C(=O)Nc2ccc(C(=O)O)cc2)c(=O)cc1-c1cc(Cl)ccc1C(C)=O [Example 16, (S)-4-(2-(4-(2-acetyl-5-chlorophenyl)-3-ethoxy-6-oxopyridazin-1(6H)-yl)-3-phenylpropanamido)benzoic acid] | 13.2 nM | 1.005 µM | 4.768 µM | 8.1% | 1090 ng·h/mL | 2530 ng/mL | 4.98 min | 16.6 mL/min/kg | 40.6 min | 0.444 L/kg | 160 ng/mL | 22.5 min | 481 ng·h/mL | 81 min | 
3 | COCCOc1nn([C@@H](Cc2ccccc2)C(=O)Nc2ccc(C(=O)O)cc2)c(=O)cc1-c1cc(Cl)ccc1C(C)=O [Example 21, (S)-4-(2-(4-(2-acetyl-5-chlorophenyl)-3-(2-methoxyethoxy)-6-oxopyridazin-1(6H)-yl)-3-phenylpropanamido)benzoic acid] | 21.9 nM | 0.777 µM | 3.848 µM | 14.9% | 743 ng·h/mL | 1600 ng/mL | 5.99 min | 25.3 mL/min/kg | 29.5 min | 0.277 L/kg | 166 ng/mL | 90 min | 608 ng·h/mL | 139 min | F ([1]; ig): 6.3%; AUC ([1]; male, plasma, iv): 455 ng·h/mL; Cmax ([1]; male, plasma, iv): 1010 ng/mL; Tmax ([1]; male, plasma, iv): 4.98 min; clearance ([1]; male, plasma, iv): 18.3 mL/min/kg; half-life ([1]; male, plasma, iv): 76.2 min; Vd ([1]; male, plasma, iv, read-out: Vss): 0.699 L/kg; AUC ([1]; male, plasma, po, ig): 357 ng·h/mL; Cmax ([1]; male, plasma, po, ig): 27.2 ng/mL; Tmax ([1]; male, plasma, po, ig): 90 min; half-life ([1]; male, plasma, po, ig): 684 min
4 | CC(=O)c1ccc(Cl)cc1-c1cc(=O)n([C@@H](Cc2ccccc2)C(=O)Nc2ccc(C(=O)O)cc2)nc1OC1COC1 [Example 24, (S)-4-(2-(4-(2-acetyl-5-chlorophenyl)-6-oxo-3-(oxetan-3-yloxy)-pyridazine-1(6H)-yl)-3-phenylpropanamido)benzoic acid] | 23 nM | 0.769 µM | 2.785 µM | 3.9% | 457 ng·h/mL | 1270 ng/mL | 4.98 min | 36.5 mL/min/kg | 168 min | 1.14 L/kg | 43.7 ng/mL | 30 min | 93.5 ng·h/mL | 104 min | 
5 | CC(=O)c1ccc(Cl)cc1-c1cc(=O)n([C@@H](Cc2ccccc2)C(=O)Nc2ccc(C(=O)O)cc2)nc1OC(F)F [Example 25, (S)-4-(2-(4-(2-acetyl-5-chlorophenyl)-3-(difluoromethoxy)-6-oxopyridazin-1(6H)-yl)-3-phenylpropanamido)benzoic acid] | 18.5 nM | 1.782 µM | 9.452 µM | 8.6% | 889 ng·h/mL | 1780 ng/mL | 4.98 min | 22.6 mL/min/kg | 48 min | 0.915 L/kg | 125 ng/mL | 37.5 min | 461 ng·h/mL | 158 min | 
6 | COc1nn(C(Cc2ccc(NC(=O)C3CC3)cc2)C(=O)Nc2ccc(C(=O)O)cc2)c(=O)cc1-c1cc(Cl)ccc1C(C)=O (stereo not shown) [Example 33, 4-(2-(4-(2-acetyl-5-chlorophenyl)-3-methoxy-6-oxopyridazin-1(6H)-yl)-3-(4-(cyclopropaneformamido)phenyl)propanamido)benzoic acid] | 19.9 nM | 1.527 µM | 7.691 µM |  |  |  |  |  |  |  |  |  |  |  | 
7 | COc1nn([C@@H](Cc2ccccc2)C(=O)Nc2ccc(C(=O)O)cc2)c(=O)cc1-c1cc(Cl)ccc1C(=O)CO [Example 35, (S)-4-(2-(4-(5-chloro-2-(2-hydroxyacetyl)phenyl)-3-methoxy-6-oxopyridazin-1(6H)-yl)-3-phenylpropanamido)benzoic acid] | 16.5 nM | 1.271 µM | 5.987 µM |  |  |  |  |  |  |  |  |  |  |  | 
8 | COc1nn([C@@H](Cc2ccccc2)C(=O)Nc2ccc(C(=O)O)cc2)c(=O)cc1-c1cc(Cl)ccc1C(=O)C(F)F [Example 36, (S)-4-(2-(4-(5-chloro-2-(2,2-difluoroacetyl)phenyl)-3-methoxy-6-oxopyridazine-1(6H)-yl)-3-phenylpropanamido)benzoic acid] | 11.6 nM | 1.348 µM | 6.562 µM |  |  |  |  |  |  |  |  |  |  |  | 
9 | COc1nn(C(Cc2ccc(NC(=O)C3CCC3)cc2)C(=O)Nc2ccc(C(=O)O)cc2)c(=O)cc1-c1cc(Cl)ccc1C(C)=O (stereo not shown) [Example 39, 4-(2-(4-(2-acetyl-5-chlorophenyl)-3-methoxy-6-oxopyridazin-1(6H)-yl)-3-(4-(cyclobutaneformamido)phenyl)propanamido)benzoic acid] | 16.4 nM | 1.638 µM | 6.859 µM |  |  |  |  |  |  |  |  |  |  |  | 
10 | COc1nn(C(Cc2ccc(NC(=O)C3CCCC3)cc2)C(=O)Nc2ccc(C(=O)O)cc2)c(=O)cc1-c1cc(Cl)ccc1C(C)=O (stereo not shown) [Example 40, 4-(2-(4-(2-acetyl-5-chlorophenyl)-3-methoxy-6-oxopyridazin-1(6H)-yl)-3-(4-(cyclopentaneformamido)phenyl)propanamido)benzoic acid] | 13.9 nM | 2.636 µM | 14.94 µM |  |  |  |  |  |  |  |  |  |  |  | 
